Literature values as cited in PMC9516332 (Frontiers in Oncology, 2022).

Legend:
[1] = target: panel of 255 wild-type kinases (Homo sapiens, UniProt Q15119); settings: kinase PDHK2; 1 µmol/L single concentration; ref DOI: 10.1371/journal.pone.0092146; cited from earlier work
[2] = target: panel of 255 wild-type kinases (Homo sapiens, UniProt Q13164); settings: kinase Erk5; 1 µmol/L single concentration; ref DOI: 10.1371/journal.pone.0092146; cited from earlier work
[3] = target: T1, panel of 255 wild-type kinases (Homo sapiens, UniProt Q13470); settings: kinase TNK1; 1 µmol/L single concentration; ref DOI: 10.1371/journal.pone.0092146; cited from earlier work
T1 sequence (Q13470 1-666): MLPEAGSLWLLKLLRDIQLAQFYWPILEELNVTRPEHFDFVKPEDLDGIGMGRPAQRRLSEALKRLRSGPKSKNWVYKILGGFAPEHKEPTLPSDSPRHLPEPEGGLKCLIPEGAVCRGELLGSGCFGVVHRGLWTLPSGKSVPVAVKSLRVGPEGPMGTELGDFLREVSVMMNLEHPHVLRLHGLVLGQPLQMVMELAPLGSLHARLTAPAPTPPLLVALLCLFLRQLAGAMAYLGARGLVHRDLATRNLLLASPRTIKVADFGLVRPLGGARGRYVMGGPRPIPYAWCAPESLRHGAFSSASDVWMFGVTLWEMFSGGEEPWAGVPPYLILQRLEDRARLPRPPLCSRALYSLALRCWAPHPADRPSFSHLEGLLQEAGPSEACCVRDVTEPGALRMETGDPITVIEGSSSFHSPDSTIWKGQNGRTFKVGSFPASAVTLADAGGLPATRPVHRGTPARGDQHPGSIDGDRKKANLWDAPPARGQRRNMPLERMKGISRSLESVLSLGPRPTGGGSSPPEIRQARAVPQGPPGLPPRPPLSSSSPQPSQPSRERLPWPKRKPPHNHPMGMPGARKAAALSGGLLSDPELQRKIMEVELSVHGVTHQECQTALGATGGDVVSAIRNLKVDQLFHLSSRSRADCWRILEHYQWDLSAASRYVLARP

[4] = target: T2, panel of 255 wild-type kinases (Homo sapiens, UniProt Q9UHD2); settings: kinase TBK1; 1 µmol/L single concentration; ref DOI: 10.1371/journal.pone.0092146; cited from earlier work
T2 sequence (Q9UHD2 1-729): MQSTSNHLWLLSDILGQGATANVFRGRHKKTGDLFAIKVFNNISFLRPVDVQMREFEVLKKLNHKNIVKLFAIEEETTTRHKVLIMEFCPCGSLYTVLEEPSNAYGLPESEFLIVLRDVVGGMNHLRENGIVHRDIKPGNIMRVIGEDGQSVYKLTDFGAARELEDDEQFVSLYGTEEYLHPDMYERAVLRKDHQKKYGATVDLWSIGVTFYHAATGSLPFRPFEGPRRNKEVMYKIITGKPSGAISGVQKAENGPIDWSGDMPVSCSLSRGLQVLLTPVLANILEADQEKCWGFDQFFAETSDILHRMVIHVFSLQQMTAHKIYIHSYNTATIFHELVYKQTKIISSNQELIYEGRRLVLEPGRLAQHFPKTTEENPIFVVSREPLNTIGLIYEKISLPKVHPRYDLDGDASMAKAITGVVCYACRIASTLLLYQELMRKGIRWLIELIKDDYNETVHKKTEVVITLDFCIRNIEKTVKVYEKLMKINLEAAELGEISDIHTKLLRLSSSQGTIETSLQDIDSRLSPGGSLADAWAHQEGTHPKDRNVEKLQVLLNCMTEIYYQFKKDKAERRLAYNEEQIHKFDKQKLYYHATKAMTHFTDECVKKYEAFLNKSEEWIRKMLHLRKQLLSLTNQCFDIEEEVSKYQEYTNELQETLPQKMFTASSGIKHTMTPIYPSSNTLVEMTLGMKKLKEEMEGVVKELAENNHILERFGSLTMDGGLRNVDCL

[5] = target: panel of 255 wild-type kinases (Homo sapiens, UniProt Q9Y5S2); settings: MRCKβ; 1 µmol/L single concentration; ref DOI: 10.1371/journal.pone.0092146; cited from earlier work
[6] = target: T3, panel of 255 wild-type kinases (Homo sapiens, UniProt Q96PN8); settings: kinase TSSK3; 1 µmol/L single concentration; ref DOI: 10.1371/journal.pone.0092146; cited from earlier work
T3 sequence (Q96PN8 1-268): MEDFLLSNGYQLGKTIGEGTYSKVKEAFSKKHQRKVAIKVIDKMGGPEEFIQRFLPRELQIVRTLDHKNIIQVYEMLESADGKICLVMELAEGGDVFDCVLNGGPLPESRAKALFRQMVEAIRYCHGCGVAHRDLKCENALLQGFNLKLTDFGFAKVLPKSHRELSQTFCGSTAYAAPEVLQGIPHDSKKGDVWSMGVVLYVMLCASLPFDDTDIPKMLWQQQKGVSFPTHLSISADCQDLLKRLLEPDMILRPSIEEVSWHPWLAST

[7] = target: panel of 255 wild-type kinases (Homo sapiens, UniProt P29376); settings: kinase LTK; 1 µmol/L single concentration; ref DOI: 10.1371/journal.pone.0092146; cited from earlier work
[8] = target: panel of 255 wild-type kinases (Homo sapiens, UniProt Q9NYA1); settings: kinase SPHK1; 1 µmol/L single concentration; ref DOI: 10.1371/journal.pone.0092146; cited from earlier work
[9] = target: panel of 255 wild-type kinases (Homo sapiens, UniProt Q9BYP7); settings: kinase WNK3; 1 µmol/L single concentration; ref DOI: 10.1371/journal.pone.0092146; cited from earlier work
[10] = target: panel of 255 wild-type kinases (Homo sapiens, UniProt P06213); settings: kinase INSR; 1 µmol/L single concentration; ref DOI: 10.1371/journal.pone.0092146; cited from earlier work

| Compound | %-inhibition at 1 µmol/L, PDHK2 [1] [%] | %-inhibition at 1 µmol/L, Erk5 [2] [%] | %-inhibition at 1 µmol/L, TNK1 [3] [%] | %-inhibition at 1 µmol/L, TBK1 [4] [%] | %-inhibition, MRCKβ [5] [%] | %-inhibition at 1 µmol/L, TSSK3 [6] [%] | %-inhibition at 1 µmol/L, LTK [7] [%] | %-inhibition at 1 µmol/L, SPHK1 [8] [%] | %-inhibition at 1 µmol/L, WNK3 [9] [%] | %-inhibition at 1 µmol/L, INSR [10] [%] |
| --- | --- | --- | --- | --- | --- | --- | --- | --- | --- | --- |
| CC(=O)Nc1cccc(-n2c(=O)n(C3CC3)c(=O)c3c(Nc4ccc(I)cc4F)n(C)c(=O)c(C)c32)c1 [trametinib] | -0.542 | -2.55 | -2.58 | -4.47 | -2.56 | -8 | -7 | -11 | 1 | -30 |
| CCCS(=O)(=O)Nc1ccc(F)c(C(=O)c2c[nH]c3ncc(-c4ccc(Cl)cc4)cc23)c1F [vemurafenib] | 3.73 | 0.709 | 13 | -0.81 | -5 | -3.19 | 2.6 | -11 | 53 | 17 |
